Patent US11904020B2, “Bicyclic peptide ligands specific for TREM2” (Bicycle Tx Limited, priority 2021, dated 2024)
pEC50, pKd: −log10 of the molar value. Like-named read-outs stand apart in the source and are kept apart here. *1 amine or outer side, *2 acyl side, *3 side chain or, on linkers, in order; H or OH if unused. Where a SMILES comes first, the peptide text is derived from it. Bridges are numbered along the chain shown (N, C = ends). [ ]: non-standard residue; d: D form. TATA = O=C(CC[*:1])N1CN(C(=O)CC[*:2])CN(C(=O)CC[*:3])C1; Phe(4-Me) = Cc1ccc(C[C@H](N)C(=O)O)cc1; 1Nal = N[C@@H](Cc1cccc2ccccc12)C(=O)O; 2Nal = N[C@@H](Cc1ccc2ccccc2c1)C(=O)O; hPhe = N[C@@H](CCc1ccccc1)C(=O)O; NMeA = CN[C@@H](C)C(=O)O

Key:
[1] = molecular target: TREM2 extracellular domain (ECD); test: Bio-Layer Interferometry (BLI) direct binding assay, cyno
Description: Traces were analysed using Octet Software (Version 11.0).

[2] = molecular target: TREM2 extracellular domain (ECD) (residues 19-131, C-terminally biotinylated, deglycosylated or glycosylated) (Homo sapiens, UniProt Q9NZC2); test: biochemical; settings: for Kd: Human BLI (Kd; nM) (deglycosylated), Table 4A, deglycosylated human TREM2 ECD, steady-state KD, 25° C.
Description: Bio-layer interferometry was performed on an Octet RED384® system (Sartorius) at 25° C. in a buffer containing 50 mM HEPES (pH 7.5), 150 mM NaCl and 0.1% Tween. TREM2 extracellular domain (ECD) (residues 19-131, C-terminally biotinylated, deglycosylated or glycosylated) was loaded onto Superstreptavidin biosensors (SSA, 18-5070, Sartorius) at 0.0125 mg/ml for 300 s. Bicycle peptides (10 mM in DMSO) were dispensed into 384-Well Tilted-Bottom Plates (18-5076, Sartorius) using an Echo liquid handler giving a final DMSO concentration of 0.125% in all wells including control wells. Association of defined concentrations of bicyclic peptide (0-12.5 μM, 1:2 dilutions for 7 points) was recorded over 120 s followed by dissociation in buffer over 120 s. Reference wells containing no bicycle peptides and reference sensors loaded with an unrelated protein (His-tagged MLLT3a) were subjected to the same assay protocol and double reference subtraction was used for processing to account for non-specific binding. Traces were analysed using Octet Software (Version 11.0). Association and dissociation curves were globally fit and the response at equilibrium (Req) plotted against concentration to obtain steady-state KD values.

[3] = molecular target: T1, TREM2 receptor (Homo sapiens, UniProt Q9NZC2); test: pSYK Homogenous Time Resolved Fluorescence (HTRF) assay in iPSC macrophages; assay type: cell-based
T1 construct: Both parental (TREM2 expressing) and isogenic TREM2 KO iPSC macrophages were plated; endogenous in cells; host or cells: human iPSC-derived macrophages (parental, TREM2 expressing)
T1 sequence (Q9NZC2 19-230): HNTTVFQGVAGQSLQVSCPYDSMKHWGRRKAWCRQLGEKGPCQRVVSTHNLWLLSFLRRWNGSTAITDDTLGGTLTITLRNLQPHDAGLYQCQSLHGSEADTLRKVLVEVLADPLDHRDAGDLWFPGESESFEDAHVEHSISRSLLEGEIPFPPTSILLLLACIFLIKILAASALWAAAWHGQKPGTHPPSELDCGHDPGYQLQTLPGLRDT
Description: Quantitative assessment of total and phospho (Tyr 525/526) SYK was performed on iPSC macrophages using CisBio total and phospho-SYK HTRF kits (catalogue numbers 64SYKTPGG and 64SYKY525-PEG respectively). Human iPSC macrophage precursors derived from embryoid bodies were plated in 96 well plates (Perkin Elmer Cell Carrier ultra, black walled plates, #6055800) at a density of 40 k cells per well in 100 μl macrophage media (XVIVO15 (Lonza, #BE04-418F), 1% Penicillin-Streptomycin (Gibco, #15140-122), 1% GlutaMAX™ Supplement (Gibco, #35050-038), 0.1% M-CSF (Invitrogen, #PHC9501)). Cells were grown for 7 days to induce full differentiation to iPSC macrophages. Both parental (TREM2 expressing) and isogenic TREM2 KO iPSC macrophages were plated to test for specificity of peptide binding. Following differentiation, cells were stimulated for 5 mins with either the control TREM2 activating antibody (R&D systems, #AF1828), a human IgG control (R&D systems, #AB-108-C), or a 10 point CRC of bicyclic peptide (serial 2 fold dilutions from a starting concentration of 100 μM). Following stimulation the media was removed, and cells were lysed in 50 μl lysis buffer (supplied with the kit) per well. Cells were incubated in LB3 for 30 mins with shaking at room temperature. Following lysis, 16 μl of sample was removed and added to a white 384 well plate (ProxiPlate-384 Plus (Perkin Elmer, #6008280)) and 4 μl of pre-mixed antibody solution was added to each well of the plate. The plate was incubated overnight at room temperature, and the following day, […] was measured at 665 nm and 620 nm using a Pherastar FSX. The same cell lysate was used to assess total and phosphorylated SYK, to enable the generation of a ratio of phosphorylated SYK in each sample.

[4] = human iPSC macrophages, 5 mins stimulation, phospho (Tyr 525/526) SYK, NB = no binding, read-out: pSYK

Compound | Kd [2] [nM] | pEC50 [3, 4] | also measured
C[C@H](N)C(=O)N[C@H]1CSCCC(=O)N2CN3CN(C2)C(=O)CCSC[C@H](NC(=O)[C@H](Cc2ccc(O)cc2)NC(=O)[C@H](CCC(=O)O)NC(=O)[C@H](CO)NC1=O)C(=O)N[C@@H](Cc1ccccc1)C(=O)N[C@@H](Cc1c[nH]c2ccccc12)C(=O)N1CCC[C@H]1C(=O)N[C@@H](Cc1ccccc1)C(=O)N[C@@H](Cc1ccc(O)cc1)C(=O)N[C@@H](Cc1c[nH]cn1)C(=O)N[C@H](C(=O)N[C@@H](C)C(N)=O)CSCCC3=O [BCY16054, A-(SEQ ID NO: 1)-A] (H-ACSEYCFWPFYHCA-NH2; linker 2-6-13 via TATA; N-terminus and C-terminus assumed) | 700 |  | Kd ([1]; Table 4A): 3300 nM; pKd ([2]; KD, binding to the human TREM2 extracellular domain in the BLI assay, FIGS. 1A to 1D): ~6.15; pEC50 [3]: 4.97
CC(=O)N[C@H]1CSCCC(=O)N2CN3CN(C2)C(=O)CCSC[C@H](NC(=O)[C@H](Cc2ccc(O)cc2)NC(=O)[C@H](CCC(=O)O)NC(=O)[C@H](CO)NC1=O)C(=O)N[C@@H](Cc1ccccc1)C(=O)N[C@@H](Cc1cccc2ccccc12)C(=O)N1CCC[C@H]1C(=O)N[C@@H](Cc1ccccc1)C(=O)N[C@@H](Cc1ccc(O)cc1)C(=O)N[C@@H](C)C(=O)N[C@H](C(N)=O)CSCCC3=O [BCY19294, Ac-(SEQ ID NO: 32)] (Ac-CSEYCF[1Nal]PFYAC-NH2; linker 1-5-12 via TATA) | 1500 | > 5.47 | 
CC(=O)N[C@H]1CSCCC(=O)N2CN3CN(C2)C(=O)CCSC[C@H](NC(=O)[C@H](Cc2ccc(O)cc2)NC(=O)[C@H](CCC(=O)O)NC(=O)[C@H](CO)NC1=O)C(=O)N[C@@H](Cc1ccccc1)C(=O)N[C@@H](Cc1ccc2ccccc2c1)C(=O)N1CCC[C@H]1C(=O)N[C@@H](Cc1ccccc1)C(=O)N[C@@H](Cc1ccc(O)cc1)C(=O)N[C@@H](C)C(=O)N[C@H](C(N)=O)CSCCC3=O [BCY19296, Ac-(SEQ ID NO: 33)] (Ac-CSEYCF[2Nal]PFYAC-NH2; linker 1-5-12 via TATA; C-terminus assumed) | 2700 | > 5.47 | 
CC(=O)N[C@H]1CSCCC(=O)N2CN3CN(C2)C(=O)CCSC[C@H](NC(=O)[C@H](Cc2ccc(O)cc2)NC(=O)[C@H](CCC(=O)O)NC(=O)[C@H](CO)NC1=O)C(=O)N[C@@H](Cc1ccc(C)cc1)C(=O)N[C@@H](Cc1c[nH]c2ccccc12)C(=O)N1CCC[C@H]1C(=O)N[C@@H](Cc1ccccc1)C(=O)N[C@@H](Cc1ccc(O)cc1)C(=O)N[C@@H](C)C(=O)N[C@H](C(N)=O)CSCCC3=O [BCY19298, Ac-(SEQ ID NO: 30)] (Ac-CSEYC[Phe(4-Me)]WPFYAC-NH2; linker 1-5-12 via TATA; C-terminus assumed) |  | > 5.47 | 
CC(=O)N[C@H]1CSCCC(=O)N2CN3CN(C2)C(=O)CCSC[C@H](NC(=O)[C@H](Cc2ccc(O)cc2)NC(=O)[C@H](CCC(=O)O)NC(=O)[C@H](CO)NC1=O)C(=O)N[C@@H](Cc1ccccc1)C(=O)N[C@@H](Cc1c[nH]c2ccccc12)C(=O)N1CCC[C@H]1C(=O)N[C@@H](Cc1ccc(C)cc1)C(=O)N[C@@H](Cc1ccc(O)cc1)C(=O)N[C@@H](C)C(=O)N[C@H](C(N)=O)CSCCC3=O [BCY19299, Ac-(SEQ ID NO: 36)] (Ac-CSEYCFWP[Phe(4-Me)]YAC-NH2; linker 1-5-12 via TATA; C-terminus assumed) | 18000 | < 5.00 | 
CC(=O)N[C@H]1CSCCC(=O)N2CN3CN(C2)C(=O)CCSC[C@H](NC(=O)[C@H](Cc2ccc(O)cc2)NC(=O)[C@H](CCC(=O)O)NC(=O)[C@H](CO)NC1=O)C(=O)N[C@@H](Cc1ccccc1)C(=O)N[C@@H](Cc1c[nH]c2ccccc12)C(=O)N1CCC[C@H]1C(=O)N[C@@H](CCc1ccccc1)C(=O)N[C@@H](Cc1ccc(O)cc1)C(=O)N[C@@H](C)C(=O)N[C@H](C(N)=O)CSCCC3=O [BCY19301, Ac-(SEQ ID NO: 35)] (Ac-CSEYCFWP[hPhe]YAC-NH2; linker 1-5-12 via TATA) |  | > 5.47 | 
CC(=O)N[C@H]1CSCCC(=O)N2CN3CN(C2)C(=O)CCSC[C@H](NC(=O)[C@H](Cc2ccc(O)cc2)NC(=O)[C@H](CCC(=O)O)NC(=O)[C@H](CO)NC1=O)C(=O)N[C@@H](Cc1ccccc1)C(=O)N[C@@H](Cc1c[nH]c2ccccc12)C(=O)N(C)[C@@H](C)C(=O)N[C@@H](Cc1ccccc1)C(=O)N[C@@H](Cc1ccc(O)cc1)C(=O)N[C@@H](C)C(=O)N[C@H](C(N)=O)CSCCC3=O [BCY19303, Ac-(SEQ ID NO: 34)] (Ac-CSEYCFW[NMeA]FYAC-NH2; linker 1-5-12 via TATA) |  | > 5.47 | 
C[C@H](N)C(=O)N[C@H]1CSCCC(=O)N2CN3CN(C2)C(=O)CCSC[C@H](NC(=O)[C@H](Cc2ccc(O)cc2)NC(=O)[C@H](CC(N)=O)NC(=O)[C@H]([C@@H](C)O)NC1=O)C(=O)N[C@@H](Cc1ccccc1)C(=O)N[C@@H](Cc1c[nH]c2ccccc12)C(=O)N1CCC[C@H]1C(=O)N[C@@H](Cc1ccccc1)C(=O)N[C@@H](CCC(N)=O)C(=O)N[C@@H](Cc1ccc(O)cc1)C(=O)N[C@H](C(=O)N[C@@H](C)C(N)=O)CSCCC3=O [BCY19779, A-(SEQ ID NO: 18)-A] (H-ACTNYCFWPFQYCA-NH2; linker 2-6-13 via TATA) | 920 | 5.60 | 
CC(C)C[C@@H]1NC(=O)[C@H](Cc2ccc(O)cc2)NC(=O)[C@H](Cc2ccccc2)NC(=O)[C@@H]2CCCN2C(=O)[C@H](Cc2c[nH]c3ccccc23)NC(=O)[C@H](Cc2ccccc2)NC(=O)[C@@H]2CSCCC(=O)N3CN(CN(C3)C(=O)CCSC[C@@H](C(=O)N[C@@H](C)C(N)=O)NC1=O)C(=O)CCSC[C@H](NC(=O)[C@H](C)N)C(=O)N[C@@H]([C@@H](C)O)C(=O)N[C@@H](CC(N)=O)C(=O)N[C@@H](Cc1ccc(O)cc1)C(=O)N2 [BCY19782, A-(SEQ ID NO: 21)-A] (H-ACTNYCFWPFYLCA-NH2; linker 2-6-13 via TATA) | 1400 | 5.42 | 
C[C@H](N)C(=O)N[C@H]1CSCCC(=O)N2CN3CN(C2)C(=O)CCSC[C@H](NC(=O)[C@H](Cc2ccc(O)cc2)NC(=O)[C@H](CCC(=O)O)NC(=O)[C@H](CO)NC1=O)C(=O)N[C@@H](Cc1ccccc1)C(=O)N[C@@H](Cc1c[nH]c2ccccc12)C(=O)N1CCC[C@H]1C(=O)N[C@@H](Cc1ccccc1)C(=O)N[C@@H](CCC(N)=O)C(=O)N[C@@H](Cc1ccc(O)cc1)C(=O)N[C@H](C(=O)N[C@@H](C)C(N)=O)CSCCC3=O [BCY19784, A-(SEQ ID NO: 23)-A] (H-ACSEYCFWPFQYCA-NH2; linker 2-6-13 via TATA) |  | 5.74 | 
CC(=O)N[C@H]1CSCCC(=O)N2CN3CN(C2)C(=O)CCSC[C@H](NC(=O)[C@H](Cc2ccc(O)cc2)NC(=O)[C@H](CCC(=O)O)NC(=O)[C@H](CO)NC1=O)C(=O)N[C@@H](Cc1ccccc1)C(=O)N[C@@H](Cc1c[nH]c2ccccc12)C(=O)N1CCC[C@H]1C(=O)N[C@@H](Cc1cccc2ccccc12)C(=O)N[C@@H](Cc1ccc(O)cc1)C(=O)N[C@@H](C)C(=O)N[C@H](C(N)=O)CSCCC3=O [BCY20722, Ac-(SEQ ID NO: 46)] (Ac-CSEYCFWP[1Nal]YAC-NH2; linker 1-5-12 via TATA) |  |  | Kd ([1]; Table 4B): 3600 nM
